The values that follow come from US12545665B2, “Crystal form of 6-(cyclopropanecarboxamido)-4-((2-methoxy-3-(1-methyl-1H-1,2,4-triazol-3-yl)phenyl)amino)-n-(methyl-d3) pyridazine-3-carboxamide” (Bristol-Myers Squibb Company, priority 2017, dated 2026).

Assay type in all cases: physicochemical
Series [1] can be described thus: Chemical stability (% Assay) of micronized Form A stored at different temperature and humidity conditions.
Procedure: Samples of micronized Form A of Compound (I) were stored at different conditions of temperature and humidity for 4 weeks. The physical stability, characterized by DSC, TGA, and PXRD, were measured at 2 and 4 weeks.
Series [2] in a line: Physical stability on storage, characterized by DSC, TGA and PXRD. As to conditions: samples stored for 4 weeks at different conditions of temperature and humidity, TGA, PXRD. The procedure:
X-ray powder diffraction (PXRD) data were obtained using a Bruker C2 GADDS with Vantec-500 detector. The radiation was Cu Kα (40 KV, 40 mA). The sample-detector distance was […]. Incident optics include Goebel mirror and 0.3 mm collimator. Powder samples were placed in sealed glass capillaries of 1 mm or less in diameter; the capillary was rotated during data collection. Data were collected for 2≤2θ≤35° with a sample exposure time of at least 1000 seconds. The resulting two-dimensional diffraction arcs were integrated to create a traditional 1-dimensional PXRD pattern with a step size of 0.05 degrees 2θ in the range of ˜2 to ˜30 degrees 2θ.
Differential scanning calorimetry (DSC) experiments were performed in a TA Instruments™ model Q2000. The sample (about 2-6 mg) was weighed in an aluminum pan and recorded accurately recorded to a hundredth of a milligram, and transferred to the DSC. […] Data were collected between room temperature and 300° C. at 10° C./min heating rate. The plot was made with the endothermic peaks pointing down.
Thermal gravimetric analysis (TGA) experiments were performed in a TA Instruments™ model Q5000. The sample (about 10-30 mg) was placed in a platinum pan previously tared. […] The furnace was purged with nitrogen gas at 100 mL/min. Data were collected between room temperature and 300° C. at 10° C./min heating rate.
(In general: DSC measures the heat that a sample takes up or gives off during a temperature scan.)

The nature of series [3]: Moisture-sorption isotherm (VTI). The procedure:
Form A of Compound (I) is non-hygroscopic with less than 0.1 weight % gain between 25 to 75% relative humidity at 25° C.
Moisture-sorption isotherms were collected in a TA Instrument VTI-SA+ Vapor Sorption Analyzer using approximately 10 mg of sample. The sample was dried at 60° C. until the loss rate of 0.0005 wt %/min was obtained for 10 minutes. The sample was tested at 25° C. and 3 or 4, 5, 15, 25, 35, 45, 50, 65, 75, 85, and 95% relative humidity (RH). Equilibration at each relative humidity was reached when the rate of 0.0003 wt %/min for 35 minutes was achieved or a maximum of 600 minutes.

The mark [4] stands for this setting: at the tested temperature and humidity conditions.

Molecules are shown by their SMILES.

On to `[2H]C([2H])([2H])NC(=O)c1nnc(NC(=O)C2CC2)cc1Nc1cccc(-c2ncn(C)n2)c1OC` [Form A of Compound (I), 6-(cyclopropanecarboxamido)-4-((2-methoxy-3-(1-methyl-1H-1,2,4-triazol-3-yl)phenyl)amino)-N-(methyl-d3)pyridazine-3-carboxamide], for which the “% Assay” value in series [1] (High Intensity Light/UV, 2 weeks) is on record as 99.3%; in series [1] (High Intensity Light/UV, 4 weeks), 99.2%; in series [1] (stored at 5° C. (control), 2 weeks) it was 99.2%; in series [1] (stored at 5° C. (control), 4 weeks), 99.2%; in series [1] (stored at 25° C./60% relative humidity (closed), 2 weeks) it was 99.2%; in series [1] (stored at 25° C./60% relative humidity (closed), 4 weeks) it was 99.2%. Further, the “% Assay” value in series [1] (stored at 40° C./75% relative humidity (open), 2 weeks) is reported as 99.2%; in series [1] (stored at 40° C./75% relative humidity (open), 4 weeks) it was 99.2%; in series [1] (stored at 50° C., 2 weeks) it was 99.2%; in series [1] (stored at 50° C., 4 weeks) it was 99.2%. Moreover, in series [1] (setting [4]), the Impurity profiles entry is “remain unchanged”. Besides, the “Physical or chemical degradation” value in series [1] (setting [4]) was “no significant physical or chemical degradation”. For the same molecule, the “Change in chemical stability” value in series [1] (samples of Table 2, stored up to 4 weeks) is “no measure change in chemical stability”. The “Change in physical form” value in series [2] is listed as “No change in the physical form was detected”. The Weight gain result in series [3] (between 25 to 75% relative humidity at 25° C.) is on record as “less than 0.1 weight %”. For the same molecule, the Hygroscopicity entry in series [3] (moisture sorption isotherm at 25° C.) is on record as “non-hygroscopic”.
